Legend:
[1] = system: Pancreatic cells (BxPC-3); experiment: phospho-gamma H2AX immunofluorescence assay of DNA damage after 18 MV X-ray irradiation generating Cherenkov light; assay type: cell-based; settings: BxPC-3 cells, 4 micrograms per ml, 6 h incubation, 10 Gy X-ray, read 30 minutes after irradiation, +/- 1 standard deviation
Description: Following preparation of the nuclear-targeted copolymer-photosensitizer micelles (NPs) as above, tests were carried out of the effect on pancreatic cancer cells in tissue culture (in vitro) of X-ray irradiation under conditions that generate Cherenkov light. Pancreatic cells (BxPC-3: ATCC, VA, USA) were selected since treatment of pancreatic cancer is one example of how the current invention might be applied to address an unmet clinical need for a minimally invasive therapy for this highly fatal disease where conventional treatments such as radiation or chemotherapy are inadequate.
Cells were incubated with NPs with water as the vehicle. […]
At 30 minutes after irradiation, the damage to DNA in the cells was measured using phospho-gamma H2AX immunofluorescence assay, similar to that used for example by Fraser et al. (2012). […] The fluorescence was imaged on a confocal fluorescence microscope where the red fluorescence (488+/−10 nm excitation, >505 nm detection) corresponding to DNA double strand breaks could be visualized on the […] DAPI fluorescence background (405+/−10 nm excitation, 460+/−25 nm detection) and the intensity quantified. The red fluorescence intensity counts were integrated over 10-18 cells for each treatment condition. […]

cells in vitro = settings: conjugation to branched peptides (loligomers) with nuclear-targeting sequences; cited from earlier work

Molecule	Mean fluorescence intensity counts ([1]; Cherenkov blocked (blackout material))	Mean fluorescence intensity counts ([1]; Cherenkov unblocked)	reduction of the required dose of photosensitizer by nuclear localization (cells in vitro)
C1=Cc2nc1c(-c1ccccc1)c1nc(c(-c3ccccc3)c3ccc([nH]3)c(-c3ccccc3)c3ccc([nH]3)c2-c2ccccc2)C=C1 [TPP, tetraphenyl porphyrin]	54.8 +/− 6.0 counts	49.5 +/− 6.7 counts	
chlorine 6			greater than 100 fold

From patent US11607454B2, “Devices and processes for Cherenkov-activated nuclear-targeted photodynamic therapy” (UNIVERSITY HEALTH NETWORK, priority 2016, dated 2023)
